This experiment concerns Clostridium difficile clinical isolate growth, OD600, 24 h. In words: growth modulation of Clostridium difficile isolate – OD600, 9-point, retest, dose response (AID 1224920).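 Further: inhibitors lower culture turbidity so OD600 falls.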

Where “and” joins values, the source holds several entries; their conditions need not be identical. Equal entries are not always repeated.

On to `Cc1ccccc1-c1ccc(C2[C@@H]3CN(C(=O)c4ccc(F)cc4)C[C@H]2N3)cc1` (stereo not given in full), for which the IC50 – broadly, the concentration that inhibits the measured activity by half – was 64.6 µM.

Consider `COc1ccccc1NC(=O)N1CCCCN2[C@@H](CO)[C@@H](c3ccc(-c4cccc(C)c4)cc3)[C@@H]2C1`, for which the IC50 is 23.5 µM. The result for `CCCN(C)C[C@@H]1OCCCC[C@@H](C)Oc2ccc(NC(=O)Nc3ccc(C(F)(F)F)cc3)cc2C(=O)N([C@H](C)CO)C[C@H]1C` reads 31.6 µM. Take `O=C(NC[C@H]1N[C@H](CO)[C@@H]1c1ccc(C2=CCCC2)cc1)c1ccccc1`: the IC50 was 69.4 µM. Turning to `Cc1ccc(-c2ccc([C@@H]3[C@H](CO)N4CCCCN(C(=O)Nc5ccccc5)C[C@@H]34)cc2)cc1`, the IC50 was 20.2 µM.

Turning to `OC[C@@H]1[C@H](c2ccc(-c3ccccc3)cc2)[C@@H]2CN(CCC(F)(F)F)CCCCN12`, the IC50 was 56.6 µM. The result for `O=C(Nc1ccc(F)cc1)N1CCCCN2[C@@H](CO)[C@@H](c3ccc(-c4cccc(F)c4)cc3)[C@@H]2C1` reads 13.2 µM; that for `Fc1ccc(CN2[C@@H]3CNC[C@H]2C3c2ccc(-c3ccccc3)cc2)cc1` (stereo not given in full), 28.6 µM. Regarding `Fc1cccc(CN2C[C@@H]3N[C@H](C2)C3c2ccc(/C=C/c3ccccc3)cc2)c1` (stereo not given in full), the IC50 is 1.8 µM and 4.45 µM. Turning to `Fc1cccc(-c2ccc([C@@H]3[C@@H]4CN(Cc5nccs5)C[C@H]3N4)cc2)c1`, the IC50 is 66.3 µM. The result for `COc1cccc(S(=O)(=O)N2[C@@H]3CNC[C@H]2C3c2ccc(/C=C/c3ccccc3)cc2)c1` (stereo not given in full) reads 23.9 µM. Then `COc1ccccc1C#Cc1ccc2c(c1)[C@H]1[C@H](CCN1C(=O)c1ccncc1)[C@H](CO)N2`, with 63.5 µM. In the case of `C/C=C/c1ccc(C2[C@H]3CNC[C@@H]2N3C(=O)Nc2ccc(C(F)(F)F)cc2)cc1` (stereo not given in full), the IC50 was 12 µM. Then `COc1ccccc1CN1CC[C@@H]2[C@H]1c1cc(C3=CCCCC3)ccc1N[C@@H]2CO`, with 74.5 µM; and `O=C(Nc1cccc(F)c1)N1CCCCN2[C@@H](CO)[C@@H](c3ccc(C#CC4CC4)cc3)[C@@H]2C1`, with 35.4 µM. On to `COc1cc(CN2C[C@@H]3N[C@H](C2)C3c2ccc(-c3ccccc3C)cc2)cc(OC)c1` (stereo not given in full), for which the IC50 was 18.8 µM and 13.7 µM. Consider `C(=C\c1ccc(C2[C@@H]3CN(Cc4ccc5c(c4)OCO5)C[C@H]2N3)cc1)/c1ccccc1` (stereo not given in full), for which the concentration for half-maximal inhibition (IC50) is 6.94 µM and 6.61 µM. Turning to `Fc1ccc(-c2ccc(C3[C@@H]4CN(Cc5cccc(F)c5)C[C@H]3N4)cc2)cc1` (stereo not given in full), the concentration for half-maximal inhibition (IC50) was 5.47 µM and 20.4 µM. Then `Cc1cccc(S(=O)(=O)N2C[C@@H]3N[C@H](C2)C3c2ccc(-c3ccccc3F)cc2)c1` (stereo not given in full), with 11.3 µM; and `O=C(Nc1ccccc1)N1CCCCN2[C@@H](CO)[C@H](c3ccc(C#Cc4ccccc4)cc3)[C@@H]2C1`, with 19.2 µM. Then `O=C(Nc1ccccc1F)N1CCCCN2[C@H](CO)[C@@H](c3ccc(/C=C/c4ccccc4)cc3)[C@H]2C1`, with 21.7 µM; and `COc1cccc(S(=O)(=O)N2C[C@@H]3N[C@H](C2)C3c2ccc(-c3ccccc3C)cc2)c1` (stereo not given in full), with 28.6 µM. Then `Fc1ccccc1-c1ccc(C2[C@@H]3CN(Cc4ccccc4)C[C@H]2N3)cc1` (stereo not given in full), with 4.68 µM and 7.81 µM. Take `O=C(Nc1ccc(F)cc1)N1[C@@H]2CNC[C@H]1C2c1ccc(-c2ccccc2)cc1` (stereo not given in full): the IC50 is 83.6 µM. The result for `C[C@@H]1CN([C@@H](C)CO)C(=O)c2cccc(NC(=O)Nc3ccc(C(F)(F)F)cc3)c2O[C@H]1CN(C)C(=O)Nc1ccc(C(F)(F)F)cc1` reads 22.2 µM; that for `O=C(C[C@H]1CC[C@H]2[C@@H](COC[C@H](O)CN2C(=O)Nc2ccc(C(F)(F)F)cc2)O1)NCC1CCCCC1`, 7.15 µM; that for `OC[C@@H]1[C@H](c2ccc(C3=CCCCC3)cc2)[C@@H]2CN(CCC(F)(F)F)CCCCN12`, 34.9 µM. With `Cc1ccc(-c2ccc([C@H]3[C@@H](CO)N4CCCCN(S(=O)(=O)c5cccc(C)c5)C[C@H]34)cc2)cc1`, the IC50 is 13.7 µM. In the case of `COc1cccc(-c2ccc(C3[C@H]4CNC[C@@H]3N4Cc3ccc4c(c3)OCO4)cc2)c1` (stereo not given in full), the IC50 was 30.1 µM. The result for `COc1ccc(C#Cc2ccc([C@@H]3[C@H](CO)N4CCCCN(C(=O)Nc5cccc(F)c5)C[C@@H]34)cc2)cc1` reads 7.68 µM.

With `O=C(C[C@@H]1CC[C@H]2[C@@H](COC[C@@H](O)CN2C(=O)Nc2cc(Cl)cc(Cl)c2)O1)N1CCOCC1`, the IC50 was 17.3 µM. Then `COc1ccc2c3c(n(C)c2c1)[C@@H](CO)NCC31CN(Cc2ccc(Cl)cc2)C1`, with 50 µM. Then `O=S(=O)(c1ccccc1)N1C[C@@H]2N[C@H](C1)C2c1ccc(/C=C/c2ccccc2)cc1` (stereo not given in full), with 8.5 µM. Regarding `Cc1ccc(S(=O)(=O)N2[C@@H]3CNC[C@H]2C3c2ccc(-c3ccccc3C)cc2)cc1` (stereo not given in full), the IC50 was 30.6 µM.

In the case of `COc1cccc(-c2ccc3c(c2)[C@H]2[C@H](CCN2Cc2ccccc2OC)[C@H](CO)N3)c1`, the IC50 was 56.5 µM.

Turning to `Cc1cccc(-c2ccc(C3[C@@H]4CN(C(=O)C5CCCC5)C[C@H]3N4)cc2)c1` (stereo not given in full), the IC50 is 62.9 µM.

On to `O=C(Nc1ccccc1)N1CCCCN2[C@@H](CO)[C@@H](c3ccc(C#Cc4ccccc4)cc3)[C@@H]2C1`, for which the concentration for half-maximal inhibition (IC50) was 19 µM.

In the case of `COc1ccccc1CN1C[C@@H]2N[C@H](C1)C2c1ccc(-c2ccc(C#N)cc2)cc1` (stereo not given in full), the IC50 is 45.1 µM. Consider `COc1cccc(CN2C[C@@H]3N[C@H](C2)C3c2ccc(-c3cccc(C#N)c3)cc2)c1` (stereo not given in full), for which the IC50 was 75.5 µM and 30.6 µM. Take `COc1cc(CN2C[C@@H]3N[C@H](C2)C3c2ccc(-c3cccc(OC)c3)cc2)cc(OC)c1` (stereo not given in full): the IC50 was 13 µM and 14 µM. The result for `COc1cccc(-c2ccc(C3[C@@H]4CN(Cc5ccccn5)C[C@H]3N4)cc2)c1` (stereo not given in full) reads 91.5 µM; that for `O=C(Nc1cccc(F)c1)N1C[C@@H]2N[C@H](C1)C2c1ccc(-c2ccc(F)cc2)cc1` (stereo not given in full), 51.8 µM. The result for `Cc1cccc(-c2ccc(C3[C@@H]4CN(C(=O)Nc5ccc(C(F)(F)F)cc5)C[C@H]3N4)cc2)c1` (stereo not given in full) reads 2.73 µM and 2.52 µM; that for `COc1ccc(-c2ccc(C3[C@H]4CNC[C@@H]3N4C(=O)Nc3ccc(C(F)(F)F)cc3)cc2)cc1` (stereo not given in full), 65.7 µM and 10.6 µM. The result for `Cc1ccc(-c2ccc(C3[C@H]4CNC[C@@H]3N4S(=O)(=O)c3ccccc3C)cc2)cc1` (stereo not given in full) reads 27.6 µM; that for `N#Cc1cccc(-c2ccc(C3[C@@H]4CN(Cc5ccccc5)C[C@H]3N4)cc2)c1` (stereo not given in full), 79.6 µM. As for `Cc1ccccc1-c1ccc(C2[C@H]3CNC[C@@H]2N3C(=O)Nc2ccc(Cl)cc2)cc1` (stereo not given in full), the IC50 was 16.9 µM and 34.3 µM. Consider `O=C(Nc1ccc(C(F)(F)F)cc1)N1C[C@@H]2N[C@H](C1)C2c1ccc(-c2ccccc2)cc1` (stereo not given in full), for which the 50% inhibitory concentration (IC50) is 3.18 µM and 4.52 µM. For the molecule `Cc1cccc(-c2ccc([C@@H]3[C@H]4CN(CCC(F)(F)F)CCCCN4[C@H]3CO)cc2)c1`, the IC50 was 66.4 µM.

Turning to `O=C(Nc1ccc2c(c1)OCO2)N1C[C@@H]2N[C@H](C1)C2c1ccc(C=Cc2ccccc2)cc1` (stereo not given in full), the IC50 is 28.3 µM.

On to `COc1ccccc1NC(=O)N1C[C@@H]2N[C@H](C1)C2c1ccc(/C=C/c2ccccc2)cc1` (stereo not given in full), for which the IC50 was 10.7 µM. For `O=C(C1CC1)N1C[C@@H]2N[C@H](C1)C2c1ccc(/C=C/c2ccccc2)cc1` (stereo not given in full), the 50% inhibitory concentration (IC50) is 70.3 µM. Then `O=C(Nc1cccc(F)c1)N1CCCCN2[C@@H](CO)[C@H](c3ccc(-c4ccccc4F)cc3)[C@@H]2C1`, with 33.6 µM; and `OC[C@@H]1Nc2ccc(-c3ccc(F)cc3)cc2[C@H]2[C@@H]1CCN2Cc1ccc(F)cc1`, with 90.2 µM. Then `CCCC#Cc1ccc([C@H]2[C@@H](CO)N3CCCCN(S(=O)(=O)Cc4ccccc4)C[C@H]23)cc1`, with 34.2 µM.

For the origin of these results see PubChem BioAssay AID1224920 (Broad Institute, 2016).
